Key:
Assay type in all cases: functional
Ostrinia nubilalis [1] = experiment: Effect on growth of male Ostrinia nubilalis (European corn borer) larvae assessed as adult emergence at 0.10% of diet dry weight after 6 days relative to control
Ostrinia nubilalis [2] = experiment: Effect on growth of male Ostrinia nubilalis (European corn borer) larvae assessed as adult emergence at 0.01% of diet dry weight after 6 days relative to control
Ostrinia nubilalis [3] = experiment: Antifeedant activity against Ostrinia nubilalis (European corn borer) larvae assessed as growth rate at 0.80% of diet dry weight after 5 days relative to control
Ostrinia nubilalis [4] = experiment: Effect on growth of female Ostrinia nubilalis (European corn borer) larvae assessed as pupal duration at 0.001% of diet dry weight after 6 days relative to control
Ostrinia nubilalis [5] = experiment: Effect on growth of male Ostrinia nubilalis (European corn borer) larvae assessed as adult emergence at 1% of diet dry weight after 6 days relative to control
Ostrinia nubilalis [6] = experiment: Effect on growth of female Ostrinia nubilalis (European corn borer) larvae assessed as adult emergence at 1% of diet dry weight after 6 days relative to control
Ostrinia nubilalis [7] = experiment: Antifeedant activity against Ostrinia nubilalis (European corn borer) larvae assessed as amount of weight gain by the insect at 0.10% of diet dry weight after 5 days relative to control
Ostrinia nubilalis [8] = experiment: Antifeedant activity against Ostrinia nubilalis (European corn borer) larvae assessed as growth rate at 0.40% of diet dry weight after 5 days relative to control
Ostrinia nubilalis [9] = experiment: Antifeedant activity against Ostrinia nubilalis (European corn borer) larvae assessed as amount of food consumed at 0.80% of diet dry weight after 5 days relative to control
Ostrinia nubilalis [10] = experiment: Antifeedant activity against Ostrinia nubilalis (European corn borer) larvae assessed as excretion rate at 0.60% of diet dry weight after 5 days relative to control
Ostrinia nubilalis [11] = experiment: Antifeedant activity against Ostrinia nubilalis (European corn borer) larvae assessed as amount of weight gain by the insect at 0.80% of diet dry weight after 5 days relative to control
Ostrinia nubilalis [12] = experiment: Effect on growth of male Ostrinia nubilalis (European corn borer) larvae assessed as pupal duration at 0.001% of diet dry weight after 6 days relative to control
Ostrinia nubilalis [13] = experiment: Effect on growth of male Ostrinia nubilalis (European corn borer) larvae assessed as pupal duration at 1% of diet dry weight after 6 days relative to control
Ostrinia nubilalis [14] = experiment: Effect on growth of male Ostrinia nubilalis (European corn borer) larvae assessed as pupal duration at 0.01% of diet dry weight after 6 days relative to control
Ostrinia nubilalis [15] = experiment: Antifeedant activity against Ostrinia nubilalis (European corn borer) larvae assessed as excretion rate at 0.20% of diet dry weight after 5 days relative to control
Ostrinia nubilalis [16] = experiment: Antifeedant activity against Ostrinia nubilalis (European corn borer) larvae assessed as amount excreted at 0.80% of diet dry weight after 5 days relative to control
Ostrinia nubilalis [17] = experiment: Antifeedant activity against Ostrinia nubilalis (European corn borer) larvae assessed as growth rate at 0.60% of diet dry weight after 5 days relative to control
Ostrinia nubilalis [18] = experiment: Antifeedant activity against Ostrinia nubilalis (European corn borer) larvae assessed as feeding rate at 0.20% of diet dry weight after 5 days relative to control
Ostrinia nubilalis [19] = experiment: Antifeedant activity against Ostrinia nubilalis (European corn borer) larvae assessed as feeding rate at 0.60% of diet dry weight after 5 days relative to control
Ostrinia nubilalis [20] = experiment: Antifeedant activity against Ostrinia nubilalis (European corn borer) larvae assessed as feeding rate at 0.80% of diet dry weight after 5 days relative to control
Ostrinia nubilalis [21] = experiment: Antifeedant activity against Ostrinia nubilalis (European corn borer) larvae assessed as amount excreted at 0.20% of diet dry weight after 5 days relative to control
Ostrinia nubilalis [22] = experiment: Antifeedant activity against Ostrinia nubilalis (European corn borer) larvae assessed as growth rate at 0.10% of diet dry weight after 5 days relative to control
Ostrinia nubilalis [23] = experiment: Effect on growth of female Ostrinia nubilalis (European corn borer) larvae assessed as pupal weight at 0.001% of diet dry weight after 6 days relative to control
Ostrinia nubilalis [24] = experiment: Effect on growth of female Ostrinia nubilalis (European corn borer) larvae assessed as pupal weight at 0.01% of diet dry weight after 6 days relative to control
Ostrinia nubilalis [25] = experiment: Effect on growth of female Ostrinia nubilalis (European corn borer) larvae assessed as pupal duration at 1% of diet dry weight after 6 days relative to control
Ostrinia nubilalis [26] = experiment: Effect on growth of female Ostrinia nubilalis (European corn borer) larvae assessed as larval duration at 0.10% of diet dry weight after 6 days relative to control
Ostrinia nubilalis [27] = experiment: Antifeedant activity against Ostrinia nubilalis (European corn borer) larvae assessed as excretion rate at 0.40% of diet dry weight after 5 days relative to control
Ostrinia nubilalis [28] = experiment: Antifeedant activity against Ostrinia nubilalis (European corn borer) larvae assessed as feeding rate at 0.40% of diet dry weight after 5 days relative to control
Ostrinia nubilalis [29] = experiment: Effect on growth of male Ostrinia nubilalis (European corn borer) larvae assessed as larval duration at 0.01% of diet dry weight after 6 days relative to control
Ostrinia nubilalis [30] = experiment: Effect on growth of male Ostrinia nubilalis (European corn borer) larvae assessed as pupal weight at 1% of diet dry weight after 6 days relative to control
Ostrinia nubilalis [31] = experiment: Antifeedant activity against Ostrinia nubilalis (European corn borer) larvae assessed as excretion rate at 0.10% of diet dry weight after 5 days relative to control
Ostrinia nubilalis [32] = experiment: Effect on growth of female Ostrinia nubilalis (European corn borer) larvae assessed as larval duration at 0.01% of diet dry weight after 6 days relative to control
Ostrinia nubilalis [33] = experiment: Effect on growth of male Ostrinia nubilalis (European corn borer) larvae assessed as pupal duration at 0.10% of diet dry weight after 6 days relative to control
Ostrinia nubilalis [34] = experiment: Effect on growth of female Ostrinia nubilalis (European corn borer) larvae assessed as pupal weight at 1% of diet dry weight after 6 days relative to control
Ostrinia nubilalis [35] = experiment: Effect on growth of female Ostrinia nubilalis (European corn borer) larvae assessed as larval duration at 0.001% of diet dry weight after 6 days relative to control
Ostrinia nubilalis [36] = experiment: Antifeedant activity against Ostrinia nubilalis (European corn borer) larvae assessed as amount of food consumed at 0.20% of diet dry weight after 5 days relative to control
Ostrinia nubilalis [37] = experiment: Antifeedant activity against Ostrinia nubilalis (European corn borer) larvae assessed as feeding rate at 0.10% of diet dry weight after 5 days relative to control
Ostrinia nubilalis [38] = experiment: Antifeedant activity against Ostrinia nubilalis (European corn borer) larvae assessed as amount of weight gain by the insect at 0.40% of diet dry weight after 5 days relative to control
Ostrinia nubilalis [39] = experiment: Antifeedant activity against Ostrinia nubilalis (European corn borer) larvae assessed as excretion rate at 0.80% of diet dry weight after 5 days relative to control
Ostrinia nubilalis [40] = experiment: Antifeedant activity against Ostrinia nubilalis (European corn borer) larvae assessed as amount of weight gain by the insect at 0.60% of diet dry weight after 5 days relative to control
Ostrinia nubilalis [41] = experiment: Effect on growth of male Ostrinia nubilalis (European corn borer) larvae assessed as larval duration at 0.10% of diet dry weight after 6 days relative to control
Ostrinia nubilalis [42] = experiment: Effect on growth of male Ostrinia nubilalis (European corn borer) larvae assessed as pupal weight at 0.001% of diet dry weight after 6 days relative to control

CC(C)=CCc1c2c(c3occ(-c4ccc(O)cc4)c(=O)c3c1O)C=CC(C)(C)O2 [OSAJIN]
Activity (Ostrinia nubilalis [1]): 71%
Activity (Ostrinia nubilalis [2]): 50%
Activity (Ostrinia nubilalis [3]): 3%
Time (Ostrinia nubilalis [4]): 6.5 days
Activity (Ostrinia nubilalis [5]): 43%
Activity (Ostrinia nubilalis [6]): 85%
Activity (Ostrinia nubilalis [7]): -2%
Activity (Ostrinia nubilalis [8]): 4.7%
Activity (Ostrinia nubilalis [9]): 27.7%
Activity (Ostrinia nubilalis [10]): 1.9%
Activity (Ostrinia nubilalis [11]): 10.5%
Time (Ostrinia nubilalis [12]): 7.2 days
Time (Ostrinia nubilalis [13]): 7.3 days
Time (Ostrinia nubilalis [14]): 6.8 days
Activity (Ostrinia nubilalis [15]): 6%
Activity (Ostrinia nubilalis [16]): 1.9%
Activity (Ostrinia nubilalis [17]): 1.7%
Activity (Ostrinia nubilalis [18]): -8%
Activity (Ostrinia nubilalis [19]): 36%
Activity (Ostrinia nubilalis [20]): 27.5%
Activity (Ostrinia nubilalis [21]): 2.6%
Activity (Ostrinia nubilalis [22]): -1%
Activity (Ostrinia nubilalis [23]): 103 mg
Activity (Ostrinia nubilalis [24]): 104 mg
Time (Ostrinia nubilalis [25]): 6.4 days
Time (Ostrinia nubilalis [26]): 11.8 days
Activity (Ostrinia nubilalis [27]): 6.3%
Activity (Ostrinia nubilalis [28]): 23%
Time (Ostrinia nubilalis [29]): 11.4 days
Activity (Ostrinia nubilalis [30]): 71 mg
Activity (Ostrinia nubilalis [31]): -1%
Time (Ostrinia nubilalis [32]): 12.6 days
Time (Ostrinia nubilalis [33]): 7.6 days
Activity (Ostrinia nubilalis [34]): 109 mg
Time (Ostrinia nubilalis [35]): 11.7 days
Activity (Ostrinia nubilalis [36]): -12%
Activity (Ostrinia nubilalis [37]): -7%
Activity (Ostrinia nubilalis [38]): 17%
Activity (Ostrinia nubilalis [39]): 4%
Activity (Ostrinia nubilalis [40]): 7%
Time (Ostrinia nubilalis [41]): 11.4 days
Activity (Ostrinia nubilalis [42]): 76 mg

CC(C)=CCc1c2c(c3occ(-c4ccc(O)c(O)c4)c(=O)c3c1O)C=CC(C)(C)O2 [POMIFERIN]
Activity (Ostrinia nubilalis [1]): 25%
Activity (Ostrinia nubilalis [2]): 67%
Activity (Ostrinia nubilalis [3]): 12%
Time (Ostrinia nubilalis [4]): 6.7 days
Activity (Ostrinia nubilalis [5]): 60%
Activity (Ostrinia nubilalis [6]): 67%
Activity (Ostrinia nubilalis [7]): 38.1%
Activity (Ostrinia nubilalis [8]): 5.3%
Activity (Ostrinia nubilalis [9]): 40.1%
Activity (Ostrinia nubilalis [10]): -12%
Activity (Ostrinia nubilalis [11]): 36.5%
Time (Ostrinia nubilalis [12]): 7 days
Time (Ostrinia nubilalis [13]): 6.7 days
Time (Ostrinia nubilalis [14]): 7.2 days
Activity (Ostrinia nubilalis [15]): -7%
Activity (Ostrinia nubilalis [16]): 23%
Activity (Ostrinia nubilalis [17]): 10%
Activity (Ostrinia nubilalis [18]): 34.6%
Activity (Ostrinia nubilalis [19]): 23.2%
Activity (Ostrinia nubilalis [20]): 20.7%
Activity (Ostrinia nubilalis [21]): 8.2%
Activity (Ostrinia nubilalis [22]): 13.3%
Activity (Ostrinia nubilalis [23]): 85 mg
Activity (Ostrinia nubilalis [24]): 96 mg
Time (Ostrinia nubilalis [25]): 6.4 days
Time (Ostrinia nubilalis [26]): 12.1 days
Activity (Ostrinia nubilalis [27]): -12%
Activity (Ostrinia nubilalis [28]): 29%
Time (Ostrinia nubilalis [29]): 10.9 days
Activity (Ostrinia nubilalis [30]): 72 mg
Activity (Ostrinia nubilalis [31]): 0%
Time (Ostrinia nubilalis [32]): 11.7 days
Time (Ostrinia nubilalis [33]): 7.5 days
Activity (Ostrinia nubilalis [34]): 109 mg
Time (Ostrinia nubilalis [35]): 11.7 days
Activity (Ostrinia nubilalis [36]): 36.9%
Activity (Ostrinia nubilalis [37]): -1%
Activity (Ostrinia nubilalis [38]): 18.2%
Activity (Ostrinia nubilalis [39]): -10%
Activity (Ostrinia nubilalis [40]): 31.5%
Time (Ostrinia nubilalis [41]): 11.1 days
Activity (Ostrinia nubilalis [42]): 76 mg
